According to patent publication US20240197666A1, “DITERPENOID COMPOUNDS THAT ACT ON PROTEIN KINASE C (PKC)” (K-Gen Therapeutics, Inc., priority 2021, published 2024):

What was measured:
[1] = Pharmacokinetic study, intravenous bolus injection in rats; format: in vivo, rat; details: for AUClast / C0 / CL / MRTInf / Vss / Vz / t1/2: rat plasma, bolus injection
Procedure: Plasma samples were taken at 1 minute, 5 minutes, 15 minutes, 30 minutes, 1 hour, 2 hours, 4 hours, 7 hours, and 24 hours. The drug concentrations at each time point were determined by LC-MS. The results of drug concentrations and pharmacokinetic parameters are presented in the Table 6 and Table 7, respectively, below.

C1b domain of human PKCα = biological target: T1, C1b domain of human PKCα (Homo sapiens, UniProt P17252); test: biochemical; format: binding; details: 3H-PDBu competition
T1 construct: Genes encoding C1b domains of human PKCα, δ, ε, θ, and PKD1 (PKCμ) were synthesized; made in house; host or cells: E. coli BL21(DE3)

[2] = test system: phosphorylation of PKCμ, PKCδ and Erk1/2 in A549 lung cancer cells; test: Western blot of activation of PKC and downstream target protein in A549 cells; format: cell-based; details: 0.3 μM, 30 minutes
Procedure: According to the methods described in patent (WO/2017/083783) A549 lung cancer cells (˜3 million cells) were seeded in 10 cm tissue culture dishes (or ˜1 million cells in 6 cm dish) and grown overnight. Cells were then treated with different drugs at indicated concentrations for 30 minutes. Cell lysate preparation, protein quantitation, SDS-PAGE, and Western blotting procedures are described (WO/2017/083783). β-actin or Vinculin was used as loading controls. Imagequant LAS4000 (GE) was used to scan membranes if secondary antibodies anti-mouse IgG HRP conjugate or anti-rabbit IgG HRP conjugate (dilutions from 1:2000-1:10000) were used. For ProteinSimple Wes system, manufacture's procedure was followed (ProteinSimple 12-230 kDa Wes Separation Module) for sample preparation, loading, running, and data analysis.
Phosphorylation of these sites has been linked to acute activation or catalytic activity of the PKC isoforms and Erk1/2. High level of phosphorylation indicates strong activation.
A subset of the diterpenoid compounds with good binding affinity to novel PKC isoforms and PKCμ was tested at two different concentrations in A549 cells to assess activation of PKCμ, PKCδ, and Erk1/2 by Western blot analysis. In addition to the phospho-specific antibodies described above, an additional phospho-specific antibody P-PKCδ (S299) (Abcam cat #133456) was also used. This antibody has been shown in the literature (Durgan et al., FEBS Lett. 2007, 581(18):3377-81, Novel phosphorylation site markers of protein kinase C delta activation) to be able to detect activation of PKCδ. K-101 (prostratin, 1 μM) was included as reference compounds.

C1b domain of human PKCθ = biological target: T2, C1b domain of human PKCθ (Homo sapiens, UniProt Q04759); test: biochemical; format: binding; details: 3H-PDBu competition
T2 construct: Genes encoding C1b domains of human PKCα, δ, ε, θ, and PKD1 (PKCμ) were synthesized; made in house; host or cells: E. coli BL21(DE3)
T2 sequence (Q04759 231-281 limits assumed): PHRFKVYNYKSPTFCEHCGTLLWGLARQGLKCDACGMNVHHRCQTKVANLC
Summary of the method: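 Binding is reported as Ki, derived from IC50 using Cheng-Prusoff with the experimentally determined 3H-PDBu Kd of each protein preparation. Tracer displacement from recombinant human GST-C1b (E. coli BL21(DE3)) was read by filter scintillation after 10 min at 37° C plus 20 min on ice.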

CT26 tumors = test: CT26 syngeneic model, IT injection, efficacy and re-challenge; format: in vivo, mouse
Procedure: Each 6-8 weeks old female Balb/c mouse was implanted subcutaneously with 3×10^5 CT26 mouse colon cancer cells. 20 animals were randomized when the average tumor volume reached 60 mm3. Tumor size was measured as described in Example 76. Animal body weight was monitored regularly as an indirect measure of toxicity. All mice tolerated drug treatments very well with less than 10% body weight loss. […] Scabs formed a few days later and the skin recovered with minimal scaring within 3-4 weeks.
For the efficacy portion of the study, the major endpoints were tumor growth inhibition and the animal survival.
To test if anti-tumor immunity was developed in the cured mice, the re-challenge portion of the study was conducted. The major endpoint was the tumor initiation (measurable tumor >50 mm^3) of the re-implanted tumor cells.
CT26 cells (3×10^5) were re-implanted into the right lower flank of the cured animals and 10 age-matched naïve control animals from the same batch to challenge animal immune system. An unrelated 4T1 breast cancer cell line (1×10^5) was implanted in the left upper flank of these animals at the same time. Tumor initiation and tumor growth were monitored. Data points represent group means of the tumor volumes and error bars represent standard error of the mean (SEM).

[3] = challenge of 6 cured mice with 4T1 cells
[4] = re-challenge of 6 cured mice with CT26 cells, 32 days

Compound: CC1=C[C@H]2[C@@]3(O)[C@H](C)C[C@]4(OC(=O)[C@@H](N)CC5CCCCC5)[C@H]([C@@H]3C=C(CO)C[C@]2(O)C1=O)C4(C)C
- Concentration in Rat Plasma after Bolus Injection, Mean ([1]; Dose 0.1 mg/kg iv, 0.0167 hour post dose): 216.0 ng/mL
- Concentration in Rat Plasma after Bolus Injection, Mean ([1]; Dose 0.1 mg/kg iv, 0.0833 hour post dose): 49.2 ng/mL
- Concentration in Rat Plasma after Bolus Injection, Mean ([1]; Dose 0.1 mg/kg iv, 0.25 hour post dose): 28.7 ng/mL
- Concentration in Rat Plasma after Bolus Injection, Mean ([1]; Dose 0.1 mg/kg iv, 0.5 hour post dose): 19.4 ng/mL
- Concentration in Rat Plasma after Bolus Injection, Mean ([1]; Dose 0.1 mg/kg iv, 1 hour post dose): 14.6 ng/mL
- Concentration in Rat Plasma after Bolus Injection, Mean ([1]; Dose 0.1 mg/kg iv, 2 hour post dose): 5.0 ng/mL
- Concentration in Rat Plasma after Bolus Injection, Mean ([1]; Dose 0.1 mg/kg iv, 4 hour post dose): 1.0 ng/mL
- Concentration in Rat Plasma after Bolus Injection, Mean ([1]; Dose 0.1 mg/kg iv, 7 hour post dose): <1 ng/mL
- Concentration in Rat Plasma after Bolus Injection, Mean ([1]; Dose 0.1 mg/kg iv, 24 hour post dose): <1 ng/mL
- Concentration in Rat Plasma after Bolus Injection, Mean ([1]; Dose 0.2 mg/kg iv, 0.0167 hour post dose): 334.0 ng/mL
- Concentration in Rat Plasma after Bolus Injection, Mean ([1]; Dose 0.2 mg/kg iv, 0.0833 hour post dose): 102.0 ng/mL
- Concentration in Rat Plasma after Bolus Injection, Mean ([1]; Dose 0.2 mg/kg iv, 0.25 hour post dose): 65.0 ng/mL
- Concentration in Rat Plasma after Bolus Injection, Mean ([1]; Dose 0.2 mg/kg iv, 0.5 hour post dose): 43.6 ng/mL
- Concentration in Rat Plasma after Bolus Injection, Mean ([1]; Dose 0.2 mg/kg iv, 1 hour post dose): 37.6 ng/mL
- Concentration in Rat Plasma after Bolus Injection, Mean ([1]; Dose 0.2 mg/kg iv, 2 hour post dose): 29.1 ng/mL
- Concentration in Rat Plasma after Bolus Injection, Mean ([1]; Dose 0.2 mg/kg iv, 4 hour post dose): 6.0 ng/mL
- Concentration in Rat Plasma after Bolus Injection, Mean ([1]; Dose 0.2 mg/kg iv, 7 hour post dose): <1 ng/mL
- Concentration in Rat Plasma after Bolus Injection, Mean ([1]; Dose 0.2 mg/kg iv, 24 hour post dose): <1 ng/mL
- AUClast ([1]; 0.1 mg/kg): 48.3 ng·h/mL
- C0 ([1]; 0.1 mg/kg): 314 ng/mL
- CL ([1]; 0.1 mg/kg): 32.9 mL/min/kg
- MRTInf ([1]; 0.1 mg/kg): 0.873 h
- Vss ([1]; 0.1 mg/kg): 1.73 L/kg
- Vz ([1]; 0.1 mg/kg): 2.44 L/kg
- t1/2 ([1]; 0.1 mg/kg): 0.857 h
- AUClast ([1]; 0.2 mg/kg): 119 ng·h/mL
- C0 ([1]; 0.2 mg/kg): 450 ng/mL
- CL ([1]; 0.2 mg/kg): 21.5 mL/min/kg
- MRTInf ([1]; 0.2 mg/kg): 2.93 h
- Vss ([1]; 0.2 mg/kg): 2.77 L/kg
- Vz ([1]; 0.2 mg/kg): 3.25 L/kg
- t1/2 ([1]; 0.2 mg/kg): 2.29 h
- Ki (C1b domain of human PKCα): 60 to 100 nM
- phosphorylation of PKCμ, PKCδ and Erk1/2 [2]: induced high levels of phosphorylation

Compound: CC1=C[C@H]2[C@@]3(O)[C@H](C)C[C@]4(OC(=O)[C@@H](N)[C@]56C[C@H]7C[C@H](C[C@H](C7)C5)C6)[C@H]([C@@H]3C=C(CO)C[C@]2(O)C1=O)C4(C)C
- Ki (C1b domain of human PKCα): 10 to 30 nM

Compound: CC1=C[C@H]2[C@@]3(O)[C@H](C)C[C@]4(OC(=O)[C@@H](N)C5Cc6ccccc6C5)[C@H]([C@@H]3C=C(CO)C[C@]2(O)C1=O)C4(C)C
- phosphorylation of PKCμ, PKCδ and Erk1/2 [2]: induced high levels of phosphorylation

Compound: CC1=C[C@H]2[C@@]3(O)[C@H](C)C[C@]4(OC(=O)[C@H](N)CCCCCCc5ccccc5)[C@H]([C@@H]3C=C(CO)C[C@]2(O)C1=O)C4(C)C
- Ki (C1b domain of human PKCθ): 10 to 30 nM
- body weight loss (CT26 tumors; 20 mg/ml, 20 μl (400 μg) IT, Balb/c mice): less than 10%
- mice alive at day 50 with tumors completely eradicated (CT26 tumors; N 10): 6
- median survival (CT26 tumors; analysis to day 50): not reached
- Tumor initiation (mice) (CT26 tumors; [3]): 6
- Tumor-free (mice) (CT26 tumors; [3]): 0
- mice with tumors eliminated (CT26 tumors; day 3 after the first IT dose, N 10): 8
- mean tumor volume (CT26 tumors; day 12, 20 mg/ml, 20 μl IT): 35 mm^3
- mice with tumor relapse (CT26 tumors; from day 10, N 10): 4
- Tumor initiation (mice) (CT26 tumors; [4]): 0
- Tumor-free (mice) (CT26 tumors; [4]): 6
